Measurements: patent publication US10495642B2, “Inhibitors of proteins specific for the secretome of a chondrocyte for use in the treatment of breast cancer metastasis” (ALBERT-LUDWIGS-UNIVERSITÄT FREIBURG, priority 2013, dated 2019)

How the values were obtained:
[1] = target: T1, recombinant human CXCL5/ENA-78 (Homo sapiens, UniProt P42830); test: Phage display identification of CXCL5 binding peptides; settings: region of CXCL5 of FIGS. 7 and 8
T1 sequence (P42830 37-114): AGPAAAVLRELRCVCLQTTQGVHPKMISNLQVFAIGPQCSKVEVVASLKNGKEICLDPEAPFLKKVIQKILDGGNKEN
Source text: Phage display: 12 amino acid binding peptides towards CXCL5 were identified using a commercial phage display system from […].

[2] = system: MDA-MB-231 cells; test: Transwell migration of MDA-MB-231 cells towards chondrocyte conditioned media; assay type: cell-based, human; settings: chondrocyte conditioned media as chemoattractant
Method: Cell differentiation: Primary human monocytes, articular chondrocytes, and adipose tissue derived stromal cells were isolated from healthy donors and differentiated into osteoclasts (OC), articular chondrocytes (AC) and osteoblasts (OB) respectively. Cell lines: MDA-MB-231 (MDA), a metastatic, and MCF7A, an epithelial like breast cancer cell line, were used in this study.
Serum free conditioned media: After differentiation, cells were washed 2 times with PBS and incubated with DMEM for 24 hours. After 24 hours, conditioned media was harvested and passed through a 0.45 μm filter.
Migration: MDA-MB-231 cells were serum-starved for 24 hours before testing of the migration. Migration media was plated in the bottom of the well and a transwell insert (8 μm pores) was placed on top. 25.000 cells were seed on top of the filter. After 15 hours, the filters were washed and non-migrated cells were removed. Migrated cells were stained with H&E and counted under a microscope. Numbers were obtained as the average number of 5 random fields per filter.

[3] = system: 4T1 cells; settings: cited from earlier work
[4] = system: MCF-7 and MDA-MB-231 as well as 4T1 cancer cell lines; settings: addition of CXCL5, cited from earlier work
[5] = system: human pancreatic cancer, malignant melanoma, papillary thyroid cancer, breast cancer, colon cancer, and prostate cancer cells; settings: human cancer cells with high basal TLR3 and Wnt5a; cited from earlier work

With H-IGKVDSNSVSHA-NH2 [Peptide 2] the “binding to the pocket region of CXCL5” value [1] was “bind to said region” and the “migration of MDA-MB-231 cells in the presence of the chondrocyte secretome” value [2] was “reduces migration”.

With “H-Pro-Val-Trp-Ala-his-leu-Asn-Pro-Pro-Trp-Leu-Ala-NH2 [Peptide 1]” the “binding to the pocket region of CXCL5” value [1] was “bind to said region” and the “migration of MDA-MB-231 cells in the presence of the chondrocyte secretome” value [2] was “reduces migration”.

In the case of “CXCL5: small cytokine of the CXC chemokine family, epithelial-derived neutrophil-activating peptide 78”, the “tumor nodules in livers, lungs and intestines versus control group” value ([3]; 4T1 mouse model) is given as “more numerous and larger”, the “metastasis of 4T1 cells in mice” value ([3]; CXCL5 0.5 mg/kg) is given as “increased the metastasis” and the migration and invasiveness ([4]; MCF-7, MDA-MB-231 and 4T1 cancer cell lines) is given as “enhance the migration and invasiveness”. For the same molecule, the cell proliferation ([4]; MCF-7 or MDA-MB-231 cancer cells) was “did not increase cell proliferation”.

In the case of `Cn1c(-c2ccccc2)c[nH]c1=S` [Peptide C10, 5-phenylmethimazole], the “cell growth and migration” value [5] is listed as “suppression of cell growth and migration”.
